Target: T1, His-tagged recombinant human TrkA (Homo sapiens, UniProt P04629)
T1 construct: 6HIS tagged cytoplasmic domain from Invitrogen, Catalog No. PV3144; purchased Invitrogen PV3144
Assay: TrkA Kinase Binding Assay (LanthaScreen Eu)
Settings: averaged IC50; TR-FRET binding, 60 min, 22° C.; read-out: TrkA Enzyme IC50
Procedure: TrkA binding activity was determined in a TrkA LanthaScreen™ Eu Kinase Binding Assay. 5 nM His-tagged recombinant human TrkA (6HIS tagged cytoplasmic domain from Invitrogen, Catalog No. PV3144) was incubated with 4 nM Alexa-Fluor® Tracer 236 (Invitrogen Cat. No. PV5592), 2 nM biotinylated anti-His (Invitrogen Cat. No. PV6090), and 2 nM europium-labeled Streptavidin (Invitrogen Cat. No. PV5899), in buffer (25 mM MOPS, pH 7.5, 5 mM MgCl2, 0.005% Triton X-100). Three fold serial dilutions of compounds of the invention in DMSO were added to a final percentage of 2% DMSO. After 60-minute incubation at 22° C., the reaction was measured using the EnVision mutlimode plate reader (PerkinElmer) via TR-FRET dual wavelength detection at […]. The percent of control was calculated using a ratiometric emission factor. The IC50 values were determined by fitting a four parameter model to the percent of control data.
Table A provides averaged IC50 values for compounds of the invention when tested in the assay of Example A, where A represents an averaged IC50 value <100 nM; B represents an averaged IC50 value from 100 to 1,000 nM; and C represents an average 1050 value above 1000 nM.

T1 sequence (P04629 440-796 limits assumed): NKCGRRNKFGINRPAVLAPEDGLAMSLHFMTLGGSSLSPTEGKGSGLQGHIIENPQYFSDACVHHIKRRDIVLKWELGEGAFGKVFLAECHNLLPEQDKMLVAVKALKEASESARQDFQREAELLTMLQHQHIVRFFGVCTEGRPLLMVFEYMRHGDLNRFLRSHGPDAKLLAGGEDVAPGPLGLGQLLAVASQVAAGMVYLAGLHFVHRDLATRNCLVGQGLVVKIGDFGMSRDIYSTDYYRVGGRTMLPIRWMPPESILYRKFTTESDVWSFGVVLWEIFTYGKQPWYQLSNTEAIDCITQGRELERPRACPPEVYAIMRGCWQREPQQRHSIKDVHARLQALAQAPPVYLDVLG

Molecule | IC50 [µM]
COCc1ccc(C2CC2)c(CNC(=O)Nc2c(C)c(-c3cnc(C)nc3)nn2-c2ccccc2)c1 [Example 1, 1-(2-cyclopropyl-5-(methoxymethyl)benzyl)-3-(4-methyl-3-(2-methylpyrimidin-5-yl)-1-phenyl-1H-pyrazol-5-yl)urea] | < 0.1
COCc1ccc(C2CC2)c(CNC(=O)Nc2c(C)c(-c3ccc(C)nc3)nn2-c2ccccc2)c1 [Example 3, 1-(2-cyclopropyl-5-(methoxymethyl)benzyl)-3-(4-methyl-3-(6-methylpyridin-3-yl)-1-phenyl-1H-pyrazol-5-yl)urea] | < 0.1
COCc1ccc(C2CC2)c(CNC(=O)Nc2c(C)c(-c3ccc(=O)n(C)c3)nn2-c2ccccc2)c1 [Example 4, 1-(2-cyclopropyl-5-(methoxymethyl)benzyl)-3-(4-methyl-3-(1-methyl-6-oxo-1,6-dihydropyridin-3-yl)-1-phenyl-1H-pyrazol-5-yl)urea] | < 0.1
COCc1ccc(C2CC2)c(CNC(=O)Nc2c(C)c(C)nn2-c2ccccc2)c1 [Example 5, 1-(2-cyclopropyl-5-(methoxymethyl)benzyl)-3-(3,4-dimethyl-1-phenyl-1H-pyrazol-5-yl)urea] | < 0.1
COCc1ccc(C2CC2)c(CNC(=O)Nc2c(C)c(-c3cnn(C)c3)nn2-c2ccccc2)c1 [Example 6, 1-(2-cyclopropyl-5-(methoxymethyl)benzyl)-3-(1′,4-dimethyl-1-phenyl-1H,1′H-[3,4′-bipyrazol]-5-yl)urea] | < 0.1
COCc1ccc(C2CCC2)c(CNC(=O)Nc2c(C)c(-c3ccc(C)nc3)nn2-c2ccccc2)c1 [Example 8, 1-(2-cyclobutyl-5-(methoxymethyl)benzyl)-3-(4-methyl-3-(6-methylpyridin-3-yl)-1-phenyl-1H-pyrazol-5-yl)urea] | < 0.1
COCc1ccc(C2CCCC2)c(CNC(=O)Nc2c(C)c(-c3cnc(C)nc3)nn2-c2ccccc2)c1 [Example 12, 1-(2-cyclopentyl-5-(methoxymethyl)benzyl)-3-(4-methyl-3-(2-methylpyrimidin-5-yl)-1-phenyl-1H-pyrazol-5-yl)urea] | < 0.1
COCc1ccc(C2CCCC2)c(CNC(=O)Nc2c(C)c(-c3ccc(C)nc3)nn2-c2ccccc2)c1 [Example 13, 1-(2-cyclopentyl-5-(methoxymethyl)benzyl)-3-(4-methyl-3-(6-methylpyridin-3-yl)-1-phenyl-1H-pyrazol-5-yl)urea] | < 0.1
CCOc1ccc(C2CC2)c(CNC(=O)Nc2c(C)c(-c3cnn(C)c3)nn2-c2ccccc2)c1 [Example 15, 1-(2-cyclopropyl-5-ethoxybenzyl)-3-(1′,4-dimethyl-1-phenyl-1H,1′H-[3,4′-bipyrazol]-5-yl)urea] | < 0.1
COC(C)c1ccc(C2CCC2)c(CNC(=O)Nc2c(C)c(-c3cnc(C)nc3)nn2-c2ccccc2)c1 (stereo not drawn) [Example 16, 1-(2-cyclobutyl-5-(1-methoxyethyl)benzyl)-3-(4-methyl-3-(2-methylpyrimidin-5-yl)-1-phenyl-1H-pyrazol-5-yl)urea] | 0.1 to 1
COCc1ccc(OC2CCC2)c(CNC(=O)Nc2c(C)c(-c3cnn(C)c3)nn2-c2ccccc2)c1 [Example 18, 1-(2-cyclobutoxy-5-(methoxymethyl)benzyl)-3-(1′,4-dimethyl-1-phenyl-1H,1′H-[3,4′-bipyrazol]-5-yl)urea] | 0.1 to 1
COCc1ccc(OC2CCC2)c(CNC(=O)Nc2c(C)c(-c3ccc(C)nc3)nn2-c2ccccc2)c1 [Example 19, 1-(2-cyclobutoxy-5-(methoxymethyl)benzyl)-3-(4-methyl-3-(6-methylpyridin-3-yl)-1-phenyl-1H-pyrazol-5-yl)urea] | < 0.1
COCc1ccc(C2(OC)CCC2)c(CNC(=O)Nc2c(C)c(-c3ccc(C)nc3)nn2-c2ccccc2)c1 [Example 24, 1-(2-(1-methoxycyclobutyl)-5-(methoxymethyl)benzyl)-3-(4-methyl-3-(6-methylpyridin-3-yl)-1-phenyl-1H-pyrazol-5-yl)urea] | 0.1 to 1
COCc1cccc(C(NC(=O)Nc2c(C)c(-c3ccn(C)c(=O)c3)nn2-c2ccccc2)C2CC2)c1 (stereo not drawn) [Example 27, 1-(cyclopropyl(3-(methoxymethyl)phenyl)methyl)-3-(4-methyl-3-(1-methyl-2-oxo-1,2-dihydropyridin-4-yl)-1-phenyl-1H-pyrazol-5-yl)urea] | 0.1 to 1
COCc1cccc(C(C)NC(=O)Nc2c(C)c(-c3cnn(C)c3)nn2-c2ccccc2)c1 (stereo not drawn) [Example 29, 1-(1′,4-dimethyl-1-phenyl-1H,1′H-[3,4′-bipyrazol]-5-yl)-3-(1-(3-(methoxymethyl)phenyl)ethyl)urea 2,2,2-trifluoroacetate] | 0.1 to 1
COCc1ccc(C2CC2)c(C(C)NC(=O)Nc2c(C)c(-c3cnn(C)c3)nn2-c2ccccc2)c1 (stereo not drawn) [Example 30, 1-(1-(2-cyclopropyl-5-(methoxymethyl)phenyl)ethyl)-3-(1′,4-dimethyl-1-phenyl-1H,1′H-[3,4′-bipyrazol]-5-yl)urea] | 0.1 to 1

Continued, values first:

IC50 [µM] | Molecule
< 0.1 | 5-(3-(2-(difluoromethoxy)-5-(methoxymethyl)benzyl)ureido)-N,4-dimethyl-1-phenyl-1H-pyrazole-3-carboxamide [Example 51]
< 0.1 | CCOc1nn(-c2ccccc2)c(NC(=O)NCc2cc(COC)ccc2C2CC2)c1C [Example 2, 1-(2-cyclopropyl-5-(methoxymethyl)benzyl)-3-(3-ethoxy-4-methyl-1-phenyl-1H-pyrazol-5-yl)urea]
< 0.1 | COCc1ccc(C2CC2)c(CNC(=O)Nc2c(C)c(-c3ccn(C)c(=O)c3)nn2-c2ccccc2)c1 [Example 7, 1-(2-cyclopropyl-5-(methoxymethyl)benzyl)-3-(4-methyl-3-(1-methyl-2-oxo-1,2-dihydropyridin-4-yl)-1-phenyl-1H-pyrazol-5-yl)urea]
< 0.1 | COCc1ccc(C2CCC2)c(CNC(=O)Nc2c(C)c(-c3ccc(=O)n(C)c3)nn2-c2ccccc2)c1 [Example 9, 1-(2-cyclobutyl-5-(methoxymethyl)benzyl)-3-(4-methyl-3-(1-methyl-6-oxo-1,6-dihydropyridin-3-yl)-1-phenyl-1H-pyrazol-5-yl)urea]
< 0.1 | COCc1ccc(C2CCC2)c(CNC(=O)Nc2c(C)c(-c3cnn(C)c3)nn2-c2ccccc2)c1 [Example 11, 1-(2-cyclobutyl-5-(methoxymethyl)benzyl)-3-(1′,4-dimethyl-1-phenyl-1H,1′H-[3,4′-bipyrazol]-5-yl)urea]
< 0.1 | COCc1ccc(OCC2CC2)c(CNC(=O)Nc2c(C)c(-c3cnn(C)c3)nn2-c2ccccc2)c1 [Example 14, 1-(2-(cyclopropylmethoxy)-5-(methoxymethyl)benzyl)-3-(1′,4-dimethyl-1-phenyl-1H,1′H-[3,4′-bipyrazol]-5-yl)urea]
< 0.1 | CCOc1ccc(COC)cc1CNC(=O)Nc1c(C)c(-c2cnn(C)c2)nn1-c1ccccc1 [Example 17, 1-(1′,4-dimethyl-1-phenyl-1H,1′H-[3,4′-bipyrazol]-5-yl)-3-(2-ethoxy-5-(methoxymethyl)benzyl)urea]
< 0.1 | COCc1ccc(OC(F)F)c(CNC(=O)Nc2c(C)c(-c3cnn(C)c3)nn2-c2ccccc2)c1 [Example 20, 1-(2-(difluoromethoxy)-5-(methoxymethyl)benzyl)-3-(1′,4-dimethyl-1-phenyl-1H,1′H-[3,4′-bipyrazol]-5-yl)urea]
< 0.1 | COCc1ccc(OC(F)F)c(CNC(=O)Nc2c(C)c(-c3ccc(C)nc3)nn2-c2ccccc2)c1 [Example 21, 1-(2-(difluoromethoxy)-5-(methoxymethyl)benzyl)-3-(4-methyl-3-(6-methylpyridin-3-yl)-1-phenyl-1H-pyrazol-5-yl)urea]
0.1 to 1 | COCc1ccc(OC(F)(F)F)c(CNC(=O)Nc2c(C)c(-c3cnn(C)c3)nn2-c2ccccc2)c1 [Example 22, 1-(1′,4-dimethyl-1-phenyl-1H,1′H-[3,4′-bipyrazol]-5-yl)-3-(5-(methoxymethyl)-2-(trifluoromethoxy)benzyl)urea]
< 0.1 | COCc1ccc(OC(F)(F)F)c(CNC(=O)Nc2c(C)c(-c3ccc(C)nc3)nn2-c2ccccc2)c1 [Example 23, 1-(5-(methoxymethyl)-2-(trifluoromethoxy)benzyl)-3-(4-methyl-3-(6-methylpyridin-3-yl)-1-phenyl-1H-pyrazol-5-yl)urea]
< 0.1 | COCc1ccc(C2CC2(F)F)c(CNC(=O)Nc2c(C)c(-c3cnn(C)c3)nn2-c2ccccc2)c1 (stereo not drawn) [Example 25, 1-(2-(2,2-difluorocyclopropyl)-5-(methoxymethyl)benzyl)-3-(1′,4-dimethyl-1-phenyl-1H,1′H-[3,4′-bipyrazol]-5-yl)urea 2,2,2-trifluoroacetate]
0.1 to 1 | COCc1cccc(C(NC(=O)Nc2c(C)c(-c3ccc(=O)n(C)c3)nn2-c2ccccc2)C2CC2)c1 (stereo not drawn) [Example 26, 1-(cyclopropyl(3-(methoxymethyl)phenyl)methyl)-3-(4-methyl-3-(1-methyl-6-oxo-1,6-dihydropyridin-3-yl)-1-phenyl-1H-pyrazol-5-yl)urea]
0.1 to 1 | COCc1cccc(C(NC(=O)Nc2c(C)c(-c3cnn(C)c3)nn2-c2ccccc2)C2CC2)c1 (stereo not drawn) [Example 28, 1-(cyclopropyl(3-(methoxymethyl)phenyl)methyl)-3-(1′,4-dimethyl-1-phenyl-1H,1′H-[3,4′-bipyrazol]-5-yl)urea]
